The values that follow come from US11707462B2, “Checkpoint kinase 1 (CHK1) inhibitors and uses thereof” (Boundless Bio, Inc., priority 2021, dated 2023).

One assay has as its system p-CHK1 (Ser345). Description: AlphaLISA SureFire Ultra p-CHK1 (Ser345) cellular assay in HT29 cells. The format is cell-based. The following applies: Homo sapiens, HT-29, 16 h at 37° C. Summed up:
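HT29 cells treated with compounds over a 10-point, 3-fold dilution series for 16 h at 37° C., then lysed; p-CHK1 (Ser345) in lysates measured by AlphaLISA SureFire Ultra (acceptor and donor steps 1 h each at room temperature). IC50 from dose-response curve fits.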
Background: Alpha assays give light when donor and acceptor beads are brought close together.

In assay [1] the target is T1, Full-length human Chk1 protein (Homo sapiens, UniProt O14757).
T1 construct: purchased Carna Biosciences, Inc. 02-117
T1 sequence (O14757 1-476): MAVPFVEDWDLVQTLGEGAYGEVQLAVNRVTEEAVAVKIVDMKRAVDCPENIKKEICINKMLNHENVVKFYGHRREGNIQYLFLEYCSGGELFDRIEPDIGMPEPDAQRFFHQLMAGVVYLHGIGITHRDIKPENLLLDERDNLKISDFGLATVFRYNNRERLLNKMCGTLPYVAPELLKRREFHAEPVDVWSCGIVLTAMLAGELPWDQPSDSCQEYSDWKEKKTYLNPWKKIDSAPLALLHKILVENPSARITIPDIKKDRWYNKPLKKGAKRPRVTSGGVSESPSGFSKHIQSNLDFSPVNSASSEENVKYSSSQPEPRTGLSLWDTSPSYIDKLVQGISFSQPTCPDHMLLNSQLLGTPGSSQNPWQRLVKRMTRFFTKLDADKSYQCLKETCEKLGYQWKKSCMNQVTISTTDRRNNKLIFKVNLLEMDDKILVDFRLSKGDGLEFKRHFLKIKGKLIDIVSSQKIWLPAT
Description: Kinase HTRF biochemical assay (HTRF KinEASE), Chk1 enzyme activity. The note with it: full-length human Chk1, ATP 1 mM, 60 minutes at room temperature. Summed up:
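Full-length human Chk1 (0.012 ng/μL) in buffer with 5 mM MgCl2 and 1 mM DTT, preincubated with compound 10 min at room temperature; reaction with 120 nM biotinylated STK substrate 1 and 1 mM ATP for 60 min at room temperature. HTRF detection via cryptate antibody/streptavidin-XL665; IC50 from 10-point duplicate curves.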
On the technique in general: In TR-FRET formats the signal depends on donor and acceptor labels being close together.

In general, IC50 refers to the concentration needed to halve the response being measured. A higher IC50 goes with a need for much substance.

`N#Cc1cnc(Nc2cc(-c3c(F)cc(Cl)cc3O[C@@H]3CC[C@H](N)C3)[nH]n2)cn1` [Example 3-24, 5-((5-(2-(((1R,3S)-3-aminocyclopentyl)oxy)-4-chloro-6-fluorophenyl)-1H-pyrazol-3-yl)amino)pyrazine-2-carbonitrile]: the results for the 50% inhibitory concentration (IC50) (in the assay with p-CHK1 (Ser345); in assay [1]) were 500 to 1000 nM and 10 to 100 nM, respectively.

As for `N#Cc1cnc(Nc2cc(-c3c(F)cccc3O[C@@H]3CCC[C@H]3N)[nH]n2)cn1` [Example 3-40, 5-((5-(2-(((1R,2R)-2-aminocyclopentyl)oxy)-6-fluorophenyl)-1H-pyrazol-3-yl)amino)pyrazine-2-carbonitrile], the IC50 in the assay with p-CHK1 (Ser345) was no more than 50 nM; in assay [1], no more than 10 nM.

As to `N#Cc1cnc(Nc2cc(-c3ncccc3O[C@@H]3CC[C@@H](N)C3)[nH]n2)cn1` [Example 1-58, 5-((5-(3-(((1R,3R)-3-aminocyclopentyl)oxy)pyridin-2-yl)-1H-pyrazol-3-yl)amino)pyrazine-2-carbonitrile], the results for the IC50 (in the assay with p-CHK1 (Ser345); in assay [1]) were no more than 50 nM and no more than 10 nM, respectively.

Consider `COc1c(F)ccc(O[C@H]2C[C@H](N)C2)c1-c1cc(Nc2cnc(C#N)cn2)n[nH]1` [Example 2-3, 5-((5-(6-((1r,3r)-3-aminocyclobutoxy)-3-fluoro-2-methoxyphenyl)-1H-pyrazol-3-yl)amino)pyrazine-2-carbonitrile], for which the half-maximal inhibitory concentration (IC50) is 100 to 500 nM in the assay on p-CHK1 (Ser345) and 10 to 100 nM in assay [1].

Take `CN[C@@H]1CC[C@@H](Oc2ccc(Cl)c(F)c2-c2cc(Nc3cnc(C#N)cn3)n[nH]2)C1` [Example 3-22, 5-((5-(3-chloro-2-fluoro-6-(((1R,3R)-3-(methylamino)cyclopentyl)oxy)phenyl)-1H-pyrazol-3-yl)amino)pyrazine-2-carbonitrile]: the half-maximal inhibitory concentration (IC50) in the assay with p-CHK1 (Ser345) lay in the range of 100 to 500 nM; in assay [1], 10 to 100 nM.

As to `COc1cccc(OC2CCC(N)C2C)c1-c1cc(Nc2cnc(C#N)cn2)n[nH]1` (stereo not drawn) [Example 1-47, 5-((5-(2-((3-amino-2-methylcyclopentyl)oxy)-6-methoxyphenyl)-1H-pyrazol-3-yl)amino)pyrazine-2-carbonitrile], the half-inhibitory concentration (IC50) is no more than 50 nM with p-CHK1 (Ser345) and no more than 10 nM in assay [1].

As for `Cc1ccc(O[C@H]2CC[C@H](N)C2)c(-c2cc(Nc3cnc(C#N)cn3)n[nH]2)n1` [Example 3-44, 5-((5-(3-(((1S,3S)-3-aminocyclopentyl)oxy)-6-methylpyridin-2-yl)-1H-pyrazol-3-yl)amino)pyrazine-2-carbonitrile], the results for the IC50 (with p-CHK1 (Ser345); in assay [1]) were 500 to 1000 nM and 10 to 100 nM, respectively.

For the compound `N#Cc1cnc(Nc2cc(-c3c(O[C@@H]4CC[C@H](N)C4)ccc(F)c3F)[nH]n2)cn1` [Example 3-18, 5-((5-(6-(((1R,3S)-3-aminocyclopentyl)oxy)-2,3-difluorophenyl)-1H-pyrazol-3-yl)amino)pyrazine-2-carbonitrile], the 50% inhibitory concentration (IC50) was in the range of 100 to 500 nM with p-CHK1 (Ser345) and 10 to 100 nM in assay [1].

On to `COc1cc(F)cc(O[C@@H]2CC[C@H](N)C2)c1-c1cc(Nc2cnc(C#N)cn2)n[nH]1` [Example 1-28, 5-((5-(2-(((1R,3S)-3-aminocyclopentyl)oxy)-4-fluoro-6-methoxyphenyl)-1H-pyrazol-3-yl)amino)pyrazine-2-carbonitrile], for which the IC50 with p-CHK1 (Ser345) is no more than 50 nM; in assay [1], no more than 10 nM.

In the case of `CN[C@@H]1CC[C@@H](Oc2ccc(C)c(F)c2-c2cc(Nc3cnc(C#N)cn3)n[nH]2)C1` [Example 3-20, 5-((5-(2-fluoro-3-methyl-6-(((1R,3R)-3-(methylamino)cyclopentyl)oxy)phenyl)-1H-pyrazol-3-yl)amino)pyrazine-2-carbonitrile], the results for the IC50 (in the assay with p-CHK1 (Ser345); in assay [1]) were no more than 50 nM and no more than 10 nM, respectively.

Take `CCOc1cccc(O[C@H]2C[C@H](N)C2)c1-c1cc(Nc2cnc(C#N)cn2)n[nH]1` [Example 1-12, 5-((5-(2-((1r,3r)-3-aminocyclobutoxy)-6-ethoxyphenyl)-1H-pyrazol-3-yl)amino)pyrazine-2-carbonitrile]: the IC50 with p-CHK1 (Ser345) is 100 to 500 nM; in assay [1], no more than 10 nM.

As for `N#Cc1cnc(Nc2cc(-c3c(OCC4CC4)cccc3O[C@H]3C[C@H](N)C3)[nH]n2)cn1` [Example 1-32, 5-((5-(2-((1r,3r)-3-aminocyclobutoxy)-6-(cyclopropylmethoxy)phenyl)-1H-pyrazol-3-yl)amino)pyrazine-2-carbonitrile], the values for the half-inhibitory concentration (IC50) (in the assay with p-CHK1 (Ser345); in assay [1]) were 500 to 1000 nM and 10 to 100 nM, respectively.

With `N#Cc1cnc(Nc2cc(-c3ncccc3O[C@H]3CC[C@@H](N)C3)[nH]n2)cn1` [Example 3-42, 5-((5-(3-(((1S,3R)-3-aminocyclopentyl)oxy)pyridin-2-yl)-1H-pyrazol-3-yl)amino)pyrazine-2-carbonitrile], the results for the IC50 (with p-CHK1 (Ser345); in assay [1]) were 100 to 500 nM and 10 to 100 nM, respectively.

In the case of `CN[C@H]1CC[C@H](Oc2cccc(OC)c2-c2cc(Nc3cnc(C#N)cn3)n[nH]2)CC1` [Example 1-45, 5-((5-(2-methoxy-6-(((1r,4r)-4-(methylamino)cyclohexyl)oxy)phenyl)-1H-pyrazol-3-yl)amino)pyrazine-2-carbonitrile], the IC50 in the assay with p-CHK1 (Ser345) was 50 to 100 nM; in assay [1], no more than 10 nM.

Take `COc1cccc(O[C@@H]2CC[C@H]2N)c1-c1cc(Nc2cnc(C#N)cn2)n[nH]1` [Example 3-2, 5-((5-(2-((1R,2R)-2-aminocyclobutoxy)-6-methoxyphenyl)-1H-pyrazol-3-yl)amino)pyrazine-2-carbonitrile]: the IC50 with p-CHK1 (Ser345) was no more than 50 nM; in assay [1], no more than 10 nM.

For the compound `Cc1ccc(O[C@@H]2CC[C@H](N)C2)c(-c2cc(Nc3cnc(C#N)cn3)n[nH]2)n1` [Example 1-57], the IC50 in the assay with p-CHK1 (Ser345) was 50 to 100 nM; in assay [1], no more than 10 nM.

For `CN(C)[C@@H]1CC[C@@H](Oc2cccc(F)c2-c2cc(Nc3cnc(C#N)cn3)n[nH]2)C1` [Example 5-4, 5-((5-(2-(((1R,3R)-3-(dimethylamino)cyclopentyl)oxy)-6-fluorophenyl)-1H-pyrazol-3-yl)amino)pyrazine-2-carbonitrile], the IC50 was greater than 1000 nM with p-CHK1 (Ser345) and 100 to 500 nM in assay [1].

For the compound `COc1cccc(O[C@@H]2CC[C@@H](N(C)C)C2)c1-c1cc(Nc2cnc(C#N)cn2)n[nH]1` [Example 1-48, 5-((5-(2-(((1R,3R)-3-(dimethylamino)cyclopentyl)oxy)-6-methoxyphenyl)-1H-pyrazol-3-yl)amino)pyrazine-2-carbonitrile], the IC50 with p-CHK1 (Ser345) was 50 to 100 nM; in assay [1], no more than 10 nM.

On to `COc1cccc(O[C@@H]2CCCC[C@H](N)C2)c1-c1cc(Nc2cnc(C#N)cn2)n[nH]1` [Example 3-8, 5-((5-(2-(((1R,3S)-3-aminocycloheptyl)oxy)-6-methoxyphenyl)-1H-pyrazol-3-yl)amino)pyrazine-2-carbonitrile], for which the IC50 with p-CHK1 (Ser345) is no more than 50 nM; in assay [1], no more than 10 nM.

Turning to `CN[C@H]1CC[C@@H](Oc2cccc(OC)c2-c2cc(Nc3cnc(C#N)cn3)n[nH]2)C1` [Example 1-46, 5-((5-(2-methoxy-6-(((1R,3S)-3-(methylamino)cyclopentyl)oxy)phenyl)-1H-pyrazol-3-yl)amino)pyrazine-2-carbonitrile], the figures for the half-inhibitory concentration (IC50) (in the assay on p-CHK1 (Ser345); in assay [1]) were no more than 50 nM and no more than 10 nM, respectively.

With `COc1cccc(O[C@H]2CC[C@@H](N)C2)c1-c1cc(Nc2cnc(C#N)cn2)n[nH]1` [Example 2-2, 5-((5-(2-(((1S,3R)-3-aminocyclopentyl)oxy)-6-methoxyphenyl)-1H-pyrazol-3-yl)amino)pyrazine-2-carbonitrile], the IC50 in the assay on p-CHK1 (Ser345) was 500 to 1000 nM; in assay [1] it was 10 to 100 nM.
